≈ marks a conversion by molar mass, not a printed value. Where two headings read alike, the source gives them in different places.
Legend:
[1] = In vitro skin permeation study, Franz-type diffusion cell; type: in vitro ADME; details: male, Wistar, rat, read-out: Kp x10^6 (permeability coefficient) (converted)
Description: The in vitro skin permeation study was performed by using skin from the whole dorsal area of a male Wistar rat. […] For each salt and the parent drug, the cumulative amounts permeated through the skin were plotted against time. A steady-state flux (Jss) was obtained by dividing the slope of that graph by the surface area of the diffusion cell (4.906 cm^2).
All the reagents and solvents required for the syntheses were purified by general laboratory techniques before use. The purity of the compounds and completion of the reactions were monitored by thin layer chromatography (TLC) on silica gel plates (60 F254; Merck), visualized with ultraviolet light or iodine vapors. […] Melting points were determined using a Veego make silicon oil bath-type melting point apparatus and are uncorrected. The IR spectra were recorded using the KBr disc method in cm^−1 on a Bruker FTIR, Model 8300. The PMR spectra were recorded in CDCl3 on a Bruker 400 MHz spectrometer (chemical shifts in δ ppm, coupling constant J in Hz). λmax was determined on the Shimadzu 1800 UV spectrophotometer. The mass of the compounds was determined by LC-MS using electron impact as the source of ionization. DSC was performed on the Shimadzu DSC-60 model with the thermal analyser TA 60WS. The scanning electron microscope (SEM) model ESEM-EDAX XL-30, Philips (Netherlands) was used for the study of surface morphology. In vitro skin permeation studies were conducted using a Franz-type diffusion cell using skin from the whole dorsal area of a male Wistar rat (200 ± 10 g). Animal experiments were performed with the approval of the institutional animal ethical committee (MSU/PHARM/IAEC/2011/14) in accordance with Laboratory Animal Welfare guidelines.
In vitro skin permeation studies were performed by using skin from the whole dorsal area of a male Wistar rat in a Franz-type diffusion cell. Skin specimens were rehydrated before being mounted in the diffusion cell. The receptor medium (0.05 M phosphate buffer saline solution of pH 7.4) was stirred and kept at 37±1°C throughout the study.
The permeability coefficients (Kp) for the steady-state delivery were obtained by dividing the steady-state flux (Jss) by the solubilities of the compounds in the corresponding vehicle. The receiver medium (0.05 M phosphate buffer saline solution of pH 7.4) was stirred and kept at 37±1°C throughout the study. The compounds were applied as solutions in the phosphate buffer of pH 5.0 or 7.4. At specified time intervals, aliquots (0.5 ml) were withdrawn from the receiver compartment and replaced with fresh buffer. The drug concentrations were analyzed by HPLC.

[2] = Solubility in phosphate buffer (0.16 M); type: physicochemical; details: aqueous buffer, thermodynamic from solid
Description: Excess amounts of each salt were added to the phosphate buffer (0.5 ml) individually. The mixtures were stirred and centrifuged at 6000 rpm for 6 min. The concentrations of each of the salts in their saturated solutions were analyzed by HPLC. The pH of the solutions was held constant throughout the experiment.

[3] = cited from earlier work

| Papp ([1]; pH 5) [×10⁻⁶ cm/s] | Papp ([1]; pH 7.4) [×10⁻⁶ cm/s] | solubility ([2]; pH 5.0, room temperature) [mM] | solubility ([2]; pH 7.4, room temperature) [mM] | SMILES | half-life [3] [h] |
| --- | --- | --- | --- | --- | --- |
| 0.0333 | 0.0667 | 14.2 ± 0.31 | 17.1 ± 0.21 | O=C([O-])Cc1ccc(-c2ccccc2)cc1.[Na+] [1a] |  |
| 0.0222 | 0.178 | 28.96 ± 0.28 | 24.1 ± 0.34 | NCCO.O=C(O)Cc1ccc(-c2ccccc2)cc1 [1b] |  |
| 0.208 | 0.00833 | 0.57 ± 0.14 (≈ 121 µg/mL) | 54.08 ± 0.14 (≈ 11500 µg/mL) | O=C(O)Cc1ccc(-c2ccccc2)cc1 [compound 1, reference compound] | > 10 |

From paper PMC4727820 (Scientia Pharmaceutica, 2014)
